Laboratory results from US9170257B2 (priority 2012, dated 2015).
Read-outs that look alike come from different tables or passages of the source.

Assay: Tissue distribution of curcumin and THC at necropsy 15 minutes post-infusion
Parameters: species or system Beagle dogs
Conditions: for Plasma concentration used to calculate Kp: average of end of infusion and 15 minutes post infusion; for concentration at 15 min / Kp at 2 h / Kp at 8 h: both sexes, dog, in vivo, 10 mg/kg; for Kp at 2 h: 2 hr infusion; for Kp at 2 h / Kp at 8 h: H3PO4 stabilized; for Kp at 8 h: 8 hr infusion
Protocol: The test article will be administered to 8 Beagle dogs by intravenous infusion over two hours (Part A) or eight hours (Part B) as shown in Table 6.
Multiple samples of tissue weighing approximately 1 gram were removed and snap frozen in the presence or absence of phosphoric acid (H3PO4). For all tissue samples, the levels of curcumin and THC were determined using a method developed by the Bioanalytical Department at Nucro-Technics. […] Values that were below the limit of quantification were assigned a value of 0. […] Tissue distribution data was analyzed using, unless stated, the data from 4 dogs and are presented as the mean±standard error (S.E.).

[1] = beagle, read-out: Kp [tissue]/[plasma], Brain Stem
[2] = beagle, read-out: Kp [tissue]/[plasma], Cortex, Brain
[3] = beagle, read-out: Kp [tissue]/[plasma], Hippocampus
[4] = beagle, read-out: Kp [tissue]/[plasma], Kidney
[5] = beagle, read-out: Kp [tissue]/[plasma], Liver
[6] = beagle, read-out: Kp [tissue]/[plasma], Lungs
[7] = beagle, read-out: Kp [tissue]/[plasma], Muscle
[8] = beagle, read-out: Kp [tissue]/[plasma], Pancreas

COc1cc(CCC(=O)CC(=O)CCc2ccc(O)c(OC)c2)ccc1O [THC, tetrahydrocurcumin]
Tissue level, Liver (2 hour infusion, Plus H3PO4): 0.45 ng/g
Tissue level, Lungs (2 hour infusion, Plus H3PO4): 2.14 ng/g
Plasma concentration used to calculate Kp (2 hours infusion): 810.9 ng/mL
Tissue level, Lungs (8 hour infusion, Plus H3PO4): 6.36 ng/g
Plasma concentration used to calculate Kp (8 hours infusion): 104.5 ng/mL
concentration at 15 min (Beagle, 2 hour infusion, No H3PO4, read-out: Tissue level, Brain Stem): 2.34 ng/g
concentration at 15 min (beagle, 2 hour infusion, No H3PO4, read-out: Tissue level, Cortex, Brain): 0.68 ng/g
concentration at 15 min (beagle, 2 hour infusion, No H3PO4, read-out: Tissue level, Heart): 2.51 ng/g
concentration at 15 min (beagle, 2 hour infusion, No H3PO4, read-out: Tissue level, Hippocampus): 0.75 ng/g
concentration at 15 min (beagle, 2 hour infusion, No H3PO4, read-out: Tissue level, Kidney): 3.06 ng/g
concentration at 15 min (beagle, 2 hour infusion, No H3PO4, read-out: Tissue level, Liver): 1.9 ng/g
concentration at 15 min (beagle, 2 hour infusion, No H3PO4, read-out: Tissue level, Lungs): 25 ng/g
concentration at 15 min (beagle, 2 hour infusion, No H3PO4, read-out: Tissue level, Muscle): 5.26 ng/g
concentration at 15 min (beagle, 2 hour infusion, No H3PO4, read-out: Tissue level, Pancreas): 2.02 ng/g
concentration at 15 min (beagle, 2 hour infusion, No H3PO4, read-out: Tissue level, Striatum): 6.22 ng/g
concentration at 15 min (beagle, 2 hour infusion, No H3PO4, read-out: Tissue level, Urinary Bladder): 0.84 ng/g
concentration at 15 min (beagle, 2 hour infusion, Plus H3PO4, read-out: Tissue level, Brain Stem): 10.6 ng/g
concentration at 15 min (beagle, 2 hour infusion, Plus H3PO4, read-out: Tissue level, Cortex, Brain): 3.08 ng/g
concentration at 15 min (beagle, 2 hour infusion, Plus H3PO4, read-out: Tissue level, Heart): 0.69 ng/g
concentration at 15 min (beagle, 2 hour infusion, Plus H3PO4, read-out: Tissue level, Hippocampus): 6.46 ng/g
concentration at 15 min (beagle, 2 hour infusion, Plus H3PO4, read-out: Tissue level, Kidney): 4.25 ng/g
concentration at 15 min (beagle, 2 hour infusion, Plus H3PO4, read-out: Tissue level, Muscle): 4.19 ng/g
concentration at 15 min (beagle, 2 hour infusion, Plus H3PO4, read-out: Tissue level, Pancreas): 0.92 ng/g
concentration at 15 min (beagle, 2 hour infusion, Plus H3PO4, read-out: Tissue level, Striatum): 11.1 ng/g
concentration at 15 min (beagle, 2 hour infusion, Plus H3PO4, read-out: Tissue level, Urinary Bladder): 0.87 ng/g
Kp at 2 h [1]: 0.0037
Kp at 2 h [2]: 0.0006
Kp at 2 h [3]: 0.0014
Kp at 2 h [4]: 0.0025
Kp at 2 h [5]: 0.0028
Kp at 2 h [6]: 0.0078
Kp at 2 h [7]: 0.0011
Kp at 2 h [8]: 0.0017
Kp at 2 h (beagle, read-out: Kp [tissue]/[plasma], Striatum): 0.0039
Kp at 2 h (beagle, read-out: Kp [tissue]/[plasma], Urinary Bladder): 0.0014
concentration at 15 min (beagle, 8 hour infusion, No H3PO4, read-out: Tissue level, Brain Stem): 0.83 ng/g
concentration at 15 min (beagle, 8 hour infusion, No H3PO4, read-out: Tissue level, Cortex, Brain): 0.06 ng/g
concentration at 15 min (beagle, 8 hour infusion, No H3PO4, read-out: Tissue level, Heart): 0.51 ng/g
concentration at 15 min (beagle, 8 hour infusion, No H3PO4, read-out: Tissue level, Hippocampus): 0.01 ng/g
concentration at 15 min (beagle, 8 hour infusion, No H3PO4, read-out: Tissue level, Kidney): 1.32 ng/g
concentration at 15 min (beagle, 8 hour infusion, No H3PO4, read-out: Tissue level, Liver): 2.63 ng/g
concentration at 15 min (beagle, 8 hour infusion, No H3PO4, read-out: Tissue level, Lungs): 10.8 ng/g
concentration at 15 min (beagle, 8 hour infusion, No H3PO4, read-out: Tissue level, Muscle): 0.38 ng/g
concentration at 15 min (beagle, 8 hour infusion, No H3PO4, read-out: Tissue level, Pancreas): 0.34 ng/g
concentration at 15 min (beagle, 8 hour infusion, No H3PO4, read-out: Tissue level, Striatum): 1.12 ng/g
concentration at 15 min (beagle, 8 hour infusion, No H3PO4, read-out: Tissue level, Urinary Bladder): 1.37 ng/g
concentration at 15 min (beagle, 8 hour infusion, Plus H3PO4, read-out: Tissue level, Brain Stem): 3.02 ng/g
concentration at 15 min (beagle, 8 hour infusion, Plus H3PO4, read-out: Tissue level, Cortex, Brain): 0.49 ng/g
concentration at 15 min (beagle, 8 hour infusion, Plus H3PO4, read-out: Tissue level, Heart): 0.03 ng/g
concentration at 15 min (beagle, 8 hour infusion, Plus H3PO4, read-out: Tissue level, Hippocampus): 1.13 ng/g
concentration at 15 min (beagle, 8 hour infusion, Plus H3PO4, read-out: Tissue level, Kidney): 2.04 ng/g
concentration at 15 min (beagle, 8 hour infusion, Plus H3PO4, read-out: Tissue level, Liver): 2.25 ng/g
concentration at 15 min (beagle, 8 hour infusion, Plus H3PO4, read-out: Tissue level, Muscle): 0.93 ng/g
concentration at 15 min (beagle, 8 hour infusion, Plus H3PO4, read-out: Tissue level, Pancreas): 1.34 ng/g
concentration at 15 min (beagle, 8 hour infusion, Plus H3PO4, read-out: Tissue level, Striatum): 3.14 ng/g
concentration at 15 min (beagle, 8 hour infusion, Plus H3PO4, read-out: Tissue level, Urinary Bladder): 1.11 ng/g
Kp at 8 h [1]: 0.0289
Kp at 8 h [2]: 0.0047
Kp at 8 h (beagle, read-out: Kp [tissue]/[plasma], Heart): 0.0003
Kp at 8 h [3]: 0.0108
Kp at 8 h [4]: 0.0195
Kp at 8 h [5]: 0.0215
Kp at 8 h [6]: 0.0609
Kp at 8 h [7]: 0.0089
Kp at 8 h [8]: 0.0128
